Experimental findings from patent US8058467B2, “Prostaglandin derivatives” (Nicox S.A., priority 2004, dated 2011) are described below.

The subject of experiment [1] is rat pheochromocytoma cells (PC12). The experiment in a line: cGMP accumulation in PC12 cells (nitric oxide-mediated activity). It is filed as cell-based. The following applies: for EC50: Rattus norvegicus, PC-12, 0.75 h, 30 μM YC-1, read-out: EC50 (effective concentration producing half maximal response), cGMP accumulation. The method, then: The formation of cyclic guanosine-3′,5′ monophosphate (cGMP) in cells in the eye is involved in the regulation of aqueous humor flow. Thus, elevation of cGMP levels leads to decreased aqueous humor production and reduction of intraocular pressure.
We measured the effects of test drugs on cGMP formation in a well established cell assay.
Undifferentiated pheochromocytoma cells (PC12) were used. The monolayer cells were incubated for 45 min in Hank's Balanced Salt Solution enriched with 10 mM Hepes, 5 mM MgCl2 and 0.05% ascorbic acid at the final pH of 7.4 and containing 100 μM of the phosphodiesterase inhibitor, isomethyl-butyl-xanthine (IBMX), 30 μM of the guanylyl cyclase […], YC-1, and the test drugs at the appropriate concentration. The reaction was terminated by the removal of the incubating buffer followed by the addition of […] of 100% ice-cold ethanol. The plate was then dried under hot air steam and the residue dissolved, extracted and analysed using commercially available cyclic cGMP enzyme immunoassay kit.

In experiment [2] the test system is carbomer-evoked increase in IOP. The experiment in a line: Intraocular pressure in carbomer-treated rabbits. Type of experiment: in vivo, rabbit. As to the method: (§1) Male NZW rabbits ranging from 3-5 kgs of body weight were used in this study. Briefly, the ability of Latanoprost nitroderivative (compound 4, EXAMPLE 3) at reducing intraocular pressure (IOP) was tested in animals previously treated with intracameral injection of 0.25% carbomer solution installation until after a stable increase of the intraocular pressure was reached. In this particular study, test drugs were administered to one eye with the dosage schedule of 1 drop/eye/day for 5 days a week with a physiologic solution containing 0.005% of control or test compounds. The IOP was monitored 3 h after drug application, two-three times weekly for a total of 4 weeks. This concentration was chosen as it reflects that of latanoprost isopropyl ester currently used in clinic to treat the increase of IOP observed in glaucoma patients. Furthermore, at each visit, about 200 μl of aqueous humor was collected using a 30 gauge needle from both eyes under lidocaine anesthesia for further biochemical evaluation of cGMP, camp and nitrite/nitrate contents.

The subject of experiment [3] is aqueous humor cGMP, cAMP and NOx. In words: cGMP, cAMP and NOx content of aqueous humor in carbomer-treated rabbits. The following applies: for NOx / cAMP / cGMP: aqueous humor; for NOx in intraocular aqueous humor (in words) / cGMP in intraocular aqueous humor (in words) / intraocular cAMP (in words): over the 4-week treatment. It is filed as in vivo, rabbit. As to the method:
as §1

Setting [4] is: 45 min, 100 μM IBMX, 30 μM YC-1.
Where [5] appears, read: Day 2, 0.005% solution, 1 drop/eye/day, 3 h after application.
Setting [6] is: Day 7, 0.005% solution, 1 drop/eye/day, 3 h after application.
[7] abbreviates: Day 10, 0.005% solution, 1 drop/eye/day, 3 h after application.
The mark [8] stands for this setting: Day 15, 0.005% solution, 1 drop/eye/day, 3 h after application.
Setting [9] is: Day 17, 0.005% solution, 1 drop/eye/day, 3 h after application.
Where [10] appears, read: Day 23, 0.005% solution, 1 drop/eye/day, 3 h after application.
The mark [11] stands for this setting: Day 25, 0.005% solution, 1 drop/eye/day, 3 h after application.
[12] abbreviates: Pre-treatment (baseline after intracameral 0.25% carbomer).

The structures appear in SMILES notation.

With `O=C(CCC/C=C\C[C@@H]1[C@@H](CC[C@@H](O)CCc2ccccc2)[C@H](O)C[C@@H]1O)Oc1cccc(CO[N+](=O)[O-])c1` (relative stereo) [Compound 4, [1R-[1α(Z),2β(R*),3α,5α]]-7-[3,5-dihydroxy-2-(3-hydroxy-5-phenylpentyl)cyclopentyl]-5-heptenoic acid 3-(nitrooxymethyl)phenyl ester], in experiment [1] (setting [4]), the “Emax (maximum effect), cGMP accumulation” value amounted to 450 % over vehicle. Moreover, the EC50 in experiment [1] (45 min, 100 μM IBMX) was 4.4 µM. The IOP in experiment [2] (setting [5]) amounted to 31 ± 1 mmHg; in experiment [2] (setting [6]), 26 ± 1 mmHg; in experiment [2] (setting [7]), 20 ± 1 mmHg; in experiment [2] (setting [8]), 18 ± 2 mmHg; in experiment [2] (setting [9]) it was 16 ± 1 mmHg; in experiment [2] (setting [10]) it was 15 ± 1 mmHg. Also, the IOP in experiment [2] (setting [11]) was 14 ± 1 mmHg; in experiment [2] (setting [12]) it was 42 ± 2 mmHg. The figures for the “decrease of intraocular pressure” value in experiment [2] (by the end of the study (4 weeks)) and in experiment [2] (within 7 days of repeated treatments) were “over 65%” and “about 50%”, respectively. For the same compound, the NOx in experiment [3] (I Week) worked out at 22 ± 2 nmol/mg prot; in experiment [3] (II Week), 25 ± 3 nmol/mg prot; in experiment [3] (III Week), 26 ± 3 nmol/mg prot; in experiment [3] (IV Week), 28 ± 3 nmol/mg prot; in experiment [3] (Pre-treatment), 17 ± 1 nmol/mg prot. Further, the cAMP is on record as 600 ± 25 fmol/mg prot in experiment [3] (I Week); 650 ± 31 fmol/mg prot in experiment [3] (II Week); 680 ± 28 fmol/mg prot in experiment [3] (III Week); 660 ± 22 fmol/mg prot in experiment [3] (IV Week); 520 ± 20 fmol/mg prot in experiment [3] (Pre-treatment). In addition, the cGMP stood at 102 ± 5 fmol/mg prot in experiment [3] (I Week); 125 ± 5 fmol/mg prot in experiment [3] (II Week); 140 ± 5 fmol/mg prot in experiment [3] (III Week); 160 ± 5 fmol/mg prot in experiment [3] (IV Week); 88 ± 5 fmol/mg prot in experiment [3] (Pre-treatment). In addition, the “NOx in intraocular aqueous humor (in words)” value in experiment [3] is “increased”. For the same compound, the “cGMP in intraocular aqueous humor (in words)” value in experiment [3] was “increased”. Further, the “intraocular cAMP (in words)” value in experiment [3] was “remained unaltered”.
`O=C(CCC/C=C\C[C@@H]1[C@@H](CC[C@@H](O)CCc2ccccc2)[C@H](O)C[C@@H]1O)OCCCCO[N+](=O)[O-]` (relative stereo) [Compound 1, [1R-[1α(Z),2α(R*),3α,5α]]-7-[3,5-dihydroxy-2-(3-hydroxy-5-phenylpentyl)cyclopentyl]-5-heptenoic acid 4-(nitrooxy)butyl ester]: in experiment [1] (setting [4]), the “Emax (maximum effect), cGMP accumulation” value is 290 % over vehicle. Moreover, in experiment [1] (45 min, 100 μM IBMX), the EC50 is 2.4 µM.
For `COc1cc(/C=C/C(=O)OCCCCO[N+](=O)[O-])ccc1OC(=O)CCC/C=C\C[C@@H]1[C@@H](CC[C@@H](O)CCc2ccccc2)[C@H](O)C[C@@H]1O` (relative stereo) [Compound 11, [1R-[1α(Z), 2β(R*),3α,5α]]-7-[3,5-dihydroxy-2-(3-hydroxy-5-phenylpentyl)cyclopentyl]-5-heptenoicacid[2-methoxy-4-[2-propenoyloxy(4-nitrooxybutyl)]]phenyl ester], in that order: 480 % over vehicle and 1.5 µM.
As to `CC(C)OC(=O)CCC/C=C\C[C@@H]1[C@@H](CC[C@@H](O)CCc2ccccc2)[C@H](O)C[C@@H]1O` [Latanoprost isopropyl ester, reference compound], the “change of intraocular pressure (in words)” value in experiment [2] (0.005% solution, 1 drop/eye/day, 4 weeks) is listed as “nor its isopropyl derivative elicited any appreciable change”. In addition, the IOP in experiment [2] (setting [5]) was 34 ± 2 mmHg; in experiment [2] (setting [6]), 33 ± 3 mmHg; in experiment [2] (setting [7]), 30 ± 1 mmHg; in experiment [2] (setting [8]), 31 ± 2 mmHg; in experiment [2] (setting [9]) it was 30 ± 2 mmHg; in experiment [2] (setting [10]) it was 32 ± 2 mmHg. Also, the IOP in experiment [2] (setting [11]) is 30 ± 2 mmHg; in experiment [2] (setting [12]), 37 ± 2 mmHg. Also, the NOx amounted to 18 ± 2 nmol/mg prot in experiment [3] (I Week); 18 ± 1 nmol/mg prot in experiment [3] (II Week); 19 ± 2 nmol/mg prot in experiment [3] (III Week); 19 ± 2 nmol/mg prot in experiment [3] (IV Week); 16 ± 1 nmol/mg prot in experiment [3] (Pre-treatment). For the same compound, the cAMP in experiment [3] (I Week) worked out at 550 ± 22 fmol/mg prot; in experiment [3] (II Week), 600 ± 30 fmol/mg prot; in experiment [3] (III Week), 620 ± 31 fmol/mg prot; in experiment [3] (IV Week) it was 625 ± 31 fmol/mg prot; in experiment [3] (Pre-treatment) it was 510 ± 18 fmol/mg prot. Further, the cGMP in experiment [3] (I Week) came out at 88 ± 6 fmol/mg prot; in experiment [3] (II Week), 98 ± 6 fmol/mg prot; in experiment [3] (III Week) it was 99 ± 6 fmol/mg prot; in experiment [3] (IV Week) it was 100 ± 6 fmol/mg prot; in experiment [3] (Pre-treatment) it was 87 ± 6 fmol/mg prot. Besides, in experiment [3], the “NOx in intraocular aqueous humor (in words)” value is “did not significantly affect”. In addition, in experiment [3], the “cGMP in intraocular aqueous humor (in words)” value is given as “did not significantly affect”. The “intraocular cAMP (in words)” value in experiment [3] is on record as “did not significantly affect”.
In the case of `CC(C)OC(=O)CCC/C=C\C[C@@H]1[C@@H](CC[C@@H](O)CCc2ccccc2)[C@H](O)C[C@@H]1O` [Latanoprost, reference compound], the “cGMP accumulation (in words)” value in experiment [1] (1-50 μM) is “not shared”. In experiment [1] (setting [4]), the “EC50 (effective concentration producing half maximal response), cGMP accumulation” value was “Not effective” and the “Emax (maximum effect), cGMP accumulation” value is “Not effective”.
